Data published in ChEMBL document CHEMBL1129838, “Synthesis and pharmacological evaluation of sulfone substituted HIV protease inhibitors” (Bioorg Med Chem Lett, 1997).
Several values for one entry are separate records, joined by “and”; a condition that tells them apart may be missing. Identical values can stand only once.

Key:
[1] = test system: Human immunodeficiency virus 1; test: Antiviral activity against HIV-1 IIIB in H9 (human leukemia) cells.; format: functional, organism-based
[2] = target: Human immunodeficiency virus type 1 protease (Human immunodeficiency virus 1, UniProt Q72874); test: Inhibition of HIV-1 protease.
[3] = Human immunodeficiency virus 1, H9

O=c1cc(C(CC2CC2)CC2CC2)oc(O)c1C(c1cccc(CS(=O)(=O)c2ccccn2)c1)C1CC1 (centres undefined)
IC50 [1, 3]: 7700 nM
Ki [2]: 2.3 nM

Cn1ccnc1S(=O)(=O)Nc1cccc(C(c2c(O)cc(C(CC3CC3)CC3CC3)oc2=O)C2CC2)c1 (centres undefined)
IC50 ([1]; h9): > 1000 nM and < 3000 nM
Ki [2]: 0.73 nM

O=c1c2c(oc(O)c1C(c1cccc(CS(=O)(=O)c3ccccn3)c1)C1CC1)CCCCCC2 (centres undefined)
IC50 [1, 3]: 10000 nM
Ki [2]: 1.9 nM

O=c1cc(C(CC2CC2)CC2CC2)oc(O)c1C(c1cccc(NS(=O)(=O)c2ccccn2)c1)C1CC1 (centres undefined)
IC50 ([1]; h9): > 1000 nM and < 3000 nM
Ki [2]: 0.66 nM

O=c1c2c(oc(O)c1C(c1cccc(CS(=O)(=O)c3ccc(F)cc3)c1)C1CC1)CCCCCC2 (centres undefined)
IC50 [1, 3]: 14500 nM
Ki [2]: 2.1 nM

N#Cc1ccc(S(=O)(=O)Cc2cccc(C(c3c(O)oc4c(c3=O)CCCCCC4)C3CC3)c2)cc1 (centres undefined)
IC50 [1, 3]: 20500 nM
Ki [2]: 1.9 nM

O=C(O)c1ccc(S(=O)(=O)Cc2cccc(C(c3c(O)c4c(oc3=O)CCCCCC4)C3CC3)c2)cc1 (centres undefined)
IC50 [1, 3]: > 30000 nM
Ki [2]: 7 nM

Cc1ccc(S(=O)(=O)Cc2cccc(C(c3c(O)c4c(oc3=O)CCCCCC4)C3CC3)c2)cc1 (centres undefined)
IC50 [1, 3]: > 30000 nM
Ki [2]: 4.1 nM

O=c1c2c(oc(O)c1C(c1cccc(CS(=O)(=O)c3ccccc3)c1)C1CC1)CCCCCC2 (centres undefined)
IC50 [1, 3]: > 30000 nM
Ki [2]: 6 nM

O=c1cc(C(CC2CC2)CC2CC2)oc(O)c1C(c1cccc(CS(=O)(=O)c2ccc(F)cc2)c1)C1CC1 (centres undefined)
IC50 [1, 3]: 19800 nM
Ki [2]: 19 nM

Cn1ccnc1S(=O)(=O)Nc1cccc(C(c2c(O)c3c(oc2=O)CCCCCC3)C2CC2)c1 (centres undefined)
IC50 [1, 3]: > 3000 nM
Ki [2]: 1.1 nM

O=c1c2c(oc(O)c1C(c1cccc(NS(=O)(=O)c3ccccc3)c1)C1CC1)CCCCCC2 (centres undefined)
IC50 [1, 3]: 5000 nM

O=c1c2c(oc(O)c1C(c1cccc(NS(=O)(=O)c3ccccn3)c1)C1CC1)CCCCCC2 (centres undefined)
IC50 [1, 3]: < 1000 nM
Ki [2]: 0.86 nM

O=C(O)c1ccc(S(=O)(=O)Nc2cccc(C(c3c(O)c4c(oc3=O)CCCCCC4)C3CC3)c2)cc1 (centres undefined)
IC50 [1, 3]: > 10000 nM

N#Cc1ccc(S(=O)(=O)Nc2cccc(C(c3c(O)c4c(oc3=O)CCCCCC4)C3CC3)c2)cc1 (centres undefined)
IC50 [1, 3]: 1500 nM

O=c1c2c(oc(O)c1C(c1cccc(NS(=O)(=O)c3ccc(F)cc3)c1)C1CC1)CCCCCC2 (centres undefined)
IC50 [1, 3]: 2100 nM

Cc1ccc(S(=O)(=O)Nc2cccc(C(c3c(O)c4c(oc3=O)CCCCCC4)C3CC3)c2)cc1 (centres undefined)
IC50 [1, 3]: 3600 nM

Cn1ccnc1S(=O)(=O)Cc1cccc(C(c2c(O)c3c(oc2=O)CCCCCC3)C2CC2)c1 (centres undefined)
IC50 [1, 3]: 20400 nM
Ki [2]: 3 nM

Cn1ccnc1S(=O)(=O)Cc1cccc(C(c2c(O)cc(C(CC3CC3)CC3CC3)oc2=O)C2CC2)c1 (centres undefined)
IC50 [1, 3]: 12000 nM
Ki [2]: 3.1 nM

O=c1cc(C(CC2CC2)CC2CC2)oc(O)c1C(c1cccc(NS(=O)(=O)c2ccc(F)cc2)c1)C1CC1 (centres undefined)
IC50 [1, 3]: 2200 nM
